Reference: patent US6388131B2, “Benzene compounds as antiproliferative and cholesterol lowering agents” (Tularik, Inc., priority 1997, dated 2002)

Assays:
[1] = system: LDL receptor expression in HepG2 cells; experiment: Increase of LDL receptor expression in HepG2 cells, western-blot analysis; format: cell-based; details: Homo sapiens, minimum concentration at which a maximal induction of LDL receptor levels was observed
Description: Compounds and compositions of a particular embodiment of the invention are capable of specifically regulating LDL receptor gene expression. Compounds may be evaluated in vitro for their ability to increase LDL receptor expression using western-blot analysis, for example, as described by Tam et al. (J. Biol. Chem. 1991, 266, 16764). Preferred such compounds and compositions provide ECmax of less than about 50 μM, preferably less than about 5 μM, more preferably less than about 0.5 μM, more preferably less than about 0.05 μM, and most preferably less than about 0.005 μM in this assay (see, e.g. Example 28 herein). Established animal models to evaluate hypocholesterolemic effects of compounds are known in the art. For example, compounds disclosed herein are shown to lower cholesterol levels in hamsters fed a high-cholesterol diet, using a protocol simllar to that described by Spady et al. (J. Clin. Invest. 1988, 81, 300), Evans et al. (J. Lipid Res. 1994, 35, 1634), and Lin et al (J. Med. Chem. 1995, 38, 277).
Certain compounds were evaluated for their ability to increase LDL receptor expression in HepG2 cells using western-blot analysis as described by Tam et al., (J. Biol. Chem., 1991, 266, 16764). […] In all cases, the level of induction was greater than that observed under lipid-free conditions (activated system) in the absence of the test compounds.

[2] = system: HeLa cells; experiment: Inhibition of in vitro growth of HeLa cells (Alamar Blue uptake); format: cell-based; details: Homo sapiens; concentration required to inhibit by 50% the uptake of Alamar Blue by HeLa cell cultures
Source text: Compounds and compositions of a particular embodiment of the invention display specific toxicity to various types of cells, preferably exerting their cytotoxic effects by interacting with cellular tubulin, preferably covalently and irreversibly. Compounds and compositions may be evaluated in vitro for their ability to inhibit cell grow, for example, as described by Ahmed et al. (J. Immunol. Methods 1994, 170, 211). […] Established animal models to evaluate antiproliferative effects of compounds are known in the art. For example, compounds can be evaluated for their ability to inhibit the growth of human tumors grafted into immunodeficient mice using methodology similar to that described by Rygaard and Poylsen (Acta Pathol. Microbiol. Scand. 1969, 77, 758) and Giovanella and Fogh (Adv. Cancer Res. 1985, 44, 69).
Compounds were evaluated for their ability to inhibit in vitro the growth of HeLa cells, an immortal cell line derived from a human cervical carcinoma commonly used to evaluate the cytotoxicity of potential therapeutic agents. The following data reflect the cytotoxicity of selected examples of the present invention. The values given represent the concentration of test compound required to inhibit by 50% the uptake of Alamar Blue (Biosource International, Camarillo, Calif.) by HeLA cell cultures, which correlates directly with the overall levels of cellular metabolism in the culture, and is generally accepted as an appropriate′marker of cell growth. The test was conducted according to the method of Ahmed et al. (J. Immunol. Methods 1994, 170, 211).

IC50 [2]	Compound	EC (max) [1]
–	COc1ccc(NS(=O)(=O)c2ccc(F)c([N+](=O)[O-])c2)cc1 [Example 1, 4-Fluoro-1-[(4-methoxyphenyl)aminosulfonyl]-3-nitrobenzene]	5 µM
150 nM	COc1ccc(NS(=O)(=O)c2ccc(F)c([N+](=O)[O-])c2)cc1O [Example 2, 4-Fluoro-1-[(3-hydroxy-4-methoxyphenyl)aminosulfonyl]-3-nitrobenzene]	1.5 µM
50 nM	COc1ccc(NS(=O)(=O)c2c(F)c(F)c(F)c(F)c2Br)cc1O [Example 3, 1-Bromo-3,4,5,6-tetrafluoro-2-[(3-hydroxy-4-methoxyphenyl)aminosulfonyl]benzene]	0.15 µM
150 nM	COc1ccc(NS(=O)(=O)c2c(F)c(F)c(F)c(F)c2Br)cc1 [Example 4, 1-Bromo-3,4,5,6-tetrafluoro-2-[(4-methoxyphenyl)aminosulfonyl]benzene]	0.5 µM
150 nM	COc1ccc(NS(=O)(=O)c2c(F)c(F)c(F)c(Br)c2F)cc1 [Example 5]	0.5 µM
5000 nM	COc1ccc(NS(=O)(=O)c2c(F)c(F)c(Br)c(F)c2F)cc1 [Example 6, 1-Bromo-2,3,5,6-tetrafluoro-4-[(4-methoxyphenyl)aminosulfonyl]benzene]	50 µM
1500 nM	COc1ccc(NS(=O)(=O)c2c(F)c(F)c(Cl)c(F)c2F)cc1 [Example 7, 1-Chloro-2,3,5,6-tetrafluoro-4-[(4-methoxyphenyl)aminosulfonyl]benzene]	50 µM
150 nM	COc1ccc(NS(=O)(=O)c2c(F)c(Cl)c(F)c(Cl)c2F)cc1 [Example 8, 1,3-Dichloro-2,4,6-trifluoro-5-[(4-methoxyphenyl)aminosulfony]benzene]	0.5 µM
50 nM	COc1ccc(NS(=O)(=O)c2c(F)c(Cl)c(F)c(Cl)c2F)cc1O [Example 9, 1,3-Dichloro-2,4,6-trifluoro-5-[(3-hydroxy-4-methoxyphenyl)aminosulfonyl]benzene]	0.15 µM
500 nM	COc1ccc(NS(=O)(=O)c2cc(Br)c(F)c(F)c2F)cc1 [Example 10, 1-Bromo-2,3,4-trifluoro-5-[(4-methoxyphenyl)aminosulfonyl]benzene]	1.5 µM
500 nM	COc1ccc(NS(=O)(=O)c2cc(F)c(F)c(F)c2Br)cc1 [Example 11, 1-Bromo-4,5,6-trifluoro-2-[(4-methoxyphenyl)aminosulfonyl]benzene]	1.5 µM
1500 nM	COc1ccc(NS(=O)(=O)c2ccc(F)c(F)c2F)cc1O [Example 17, 1-[(3-Hydroxy-4-methoxyphenyl)aminosulfonyl]-2,3,4-trifluorobenzene]	–
5000 nM	COc1ccc(NS(=O)(=O)c2c(F)cc(F)c(F)c2F)cc1 [Example 19, 2,3,4,6-Tetrafluoro-1-[(4-methoxyphenyl)aminosulfonyl]benzene]	15 µM
500 nM	COc1ccc(NS(=O)(=O)c2cc(F)c(F)c(F)c2F)cc1 [Example 20, 2,3,4,5-Tetrafluoro-1-[(4-methoxyphenyl)aminosulfonyl]benzene]	1.5 µM
150 nM	COc1ccc(NS(=O)(=O)c2cc(F)c(F)c(F)c2F)cc1O [Example 21, 2,3,4,5-Tetrafluoro-1-[(3-hydroxy-4-methoxyphenyl)aminosulfonyl]benzene]	0.5 µM
5000 nM	COc1ccc(NS(=O)(=O)c2cc(F)c(F)c(F)c2)cc1 [Example 22, 3,4,5-Trifluoro-1-[(4-methoxyphenyl)aminosulfonyl]benzene]	5 µM
1500 nM	COc1ccc(NS(=O)(=O)c2cc(F)c(F)c(F)c2)cc1O [Example 23, 3,4,5-Trifluoro-1-[(3-hydroxy-4-methoxyphenyl)aminosulfonyl]benzene]	–
5000 nM	COc1ccc(CS(=O)(=O)c2c(F)c(F)c(F)c(F)c2F)cc1 [Example 24, 4-Methoxybenzyl Pentafluorophenyl Sulfone]	1.5 µM
